According to patent publication US20110046120A1, “TREATMENT OF IMPULSE CONTROL DISORDERS” (Mclean Hospital Corporation, priority 2006, published 2011):

Legend:
[1] = system: α2 adrenoceptor; settings: cited from earlier work; for effect on yohimbine's effects: α2 agonists, Ghitza et al, 2005, Le et al, Lee et al, 2004
[2] = system: reward circuitry; assay: cardiac gated fMRI BOLD imaging during cocaine infusion; type: in vivo, human; settings: cocaine HCl 0.6 mg/kg infusion (max 40 mg), vs pre-infusion baseline, count out of 7 cocaine-dependent subjects
Text: We imaged reward circuitry in humans during cocaine infusion, using cardiac gated fMRI BOLD imaging to compensate for brainstem motion. We further used a clustered volume acquisition with sharpened slice profiles to cluster the acquisition of the brainstem volume and thus reduce the effects of imaging noise on cocaine-induced euphoria and craving. Eleven right-handed men (34±7 years old) with the DSM-IV diagnosis of cocaine dependence were studied. During imaging, subjects underwent a randomized double-blind infusion of either cocaine HCl (0.6 mg/kg up to maximum dose of 40 mg) or saline. Subjects were scanned on an Instascan device (1.5 T General Electric Signa; modified by Advanced NMR Systems, Wilmington, Mass.) using a head coil (General Electric). […] Automated shimming with second order shims was performed to improve Bo field homogeneity. Functional scans utilized cardiac gating with an asymmetric spin echo, T2*-weighted CVA (TR=6 RR, three slices per each of the first two RRs; TE=70; offset=−25 ms; 128×64 matrix; thickness=3.12×3.12 mm, through-plane resolution=7 mm; 200 images/slice). […] Seven matched sets of cocaine and saline infusion scans were interpretable after motion-correction. Statistical maps were constructed using Kolmogorov-Smirnov (KS) statistics and thresholded at the corrected p value for brain regions sampled, p<10-5. […]

[3] = system: cocaine-dependent individuals; assay: self-rated subjective responses after intravenous cortisol, cocaine and saline in cocaine dependence; type: in vivo, human
Experimental: To assess cocaine/stress cross-sensitization, 12 cocaine-dependent individuals (age: 39.8±3.5 years) were administered cortisol (0.2 and 0.5 mg/kg), along with cocaine (0.2 mg/kg) and saline via intravenous boluses, in a double-blind, counterbalanced fashion. The individualized description of subjective responses were categorized into four components: craving, high, rush, and low, which were self-rated on a computerized continuous scale of 0 (none) to 3 (extreme) each minute for two minutes prior and 20 minutes following each infusion. Cocaine craving was proactively defined with the subject, clinically as an urge to use the drug and operationally in terms of the action the individual wanted to engage in to get cocaine. The ratings for high (well-being, self-confidence, and sociability), rush (perception of elevated heart rate and sweating, along with sensations of ‘speeding’), and low (dysphoric affect distinct from the high experience diminishment) were subjectively defined and not necessarily associated with a behavioral response or with the planning of physical activity. […] Cocaine elevated measures of craving (p<0.001); high (p<0.02); rush (p<10-4); and low (p=0.05). Saline produced no significant ratings changes.

[4] = system: reward circuitry; assay: fMRI with cardiac gating during low-dose morphine infusions
Experimental: Normal human reward circuitry was studied during low-dose morphine infusions using fMRI with cardiac gating in an unblinded study. […] Morphine and saline infusions were counter-balanced across subjects, and segregated in separate scan sessions 7 days apart. Four 2 mL infusions were given over 8 minutes, with each infusion lasting 20 seconds. The onset of each infusion was separated by a 2-minute interval. The total morphine dose divided evenly over the 4 infusions was 4 mg/70 kg. Respiratory rate, heart rate, O2 saturation, and end-tidal carbon dioxide concentration in the expired air (ETCO2) were monitored during the experiment in each individual for safety. Subjects were asked to rate their subjective high on a 10-point hedonic rating scale (0=no high; 10=max. high imaginable).

[5] = system: NAc and other stress-associated regions; assay: monetary reward task with fMRI in PG subjects given yohimbine; type: in vivo, human; settings: vs PG subjects given saline and normal controls
Experimental: During the gambling paradigm, subjects participated in a game of chance where they actually won or lost money while in the fMRI scanner. Signal changes that anticipate or accompany monetary gains and losses under varying conditions of controlled expectation were evaluated. Specifically, evaluated were: a) an “expectancy phase”, when a promising or unpromising roulette-like spinner (FIG. 4) is presented and b) an “outcome phase” when the arrow lands on one sector of that spinner, and thereby alters the subjects' winnings. It is known that, when applied to healthy controls, this task differentiates the fMRI time courses in the NAc, mPFC and SLEA and in related regions during expectancy vs. outcome phases.
At the start of the game, each subject was given an endowment of $50 and was told that (s)he might lose some or all of this stake, retain it or increase it. Each trial consisted of a “prospect phase”, when a spinner was presented and an “outcome phase” when a sector of the spinner was selected by the arrow and a corresponding amount was added to or subtracted from the subjects' winnings. […] The display was static for the first 0.5 second and then a superimposed arrow began to rotate. […] Only results of the last 18 trials were scored for each run since the initial trial was inserted into the run sequence purely to maintain counterbalancing. […]

[6] = Guthrie et al, 1990; cited from earlier work
[7] = system: healthy subjects and neuropsychiatric patients; settings: cited from earlier work
[8] = morphine 4 mg/70 kg total, 5 subjects

## CCS(=O)(=O)N1CCC[C@@H]2CN3CCc4cc(OC)ccc4[C@@H]3C[C@@H]21.Cl [RS-79948-197]
[1]; selective α2 adrenoceptor antagonist, literature
  reproduction of yohimbine's effects: replication of these effects

## Clc1cccc(Cl)c1N=C1NCCN1 [clonidine]
[1]
  effect on yohimbine's effects: blockade of yohimbine's effects

## COC(=O)[C@H]1[C@@H](OC(=O)c2ccccc2)C[C@@H]2CC[C@H]1N2C [cocaine]
[2]
  subjects with focal positive fMRI signal changes in the right NAc, amygdala, and mPFC: ≥ 5

## C[C@]12CCC(=O)C=C1CC[C@@H]1[C@@H]2[C@@H](O)C[C@@]2(C)[C@H]1CC[C@]2(O)C(=O)CO [cortisol]
[3]; cortisol 0.2 and 0.5 mg/kg iv bolus, F=3.11, p<0.001
  craving self-rating, time effect: significant increases in craving
[3]; cortisol 0.2 vs 0.5 mg/kg iv, F=0.06, p=0.81
  craving self-rating, dose effect: no dose effect

## CC(Oc1c(Cl)cccc1Cl)C1=NCCN1 (stereo not shown) [lofexidine]
[1]
  effect on yohimbine's effects: blockade of yohimbine's effects

## CN1CC[C@]23c4c5ccc(O)c4O[C@H]2[C@@H](O)C=C[C@H]3[C@H]1C5 [morphine]
[4]; morphine 4 mg/70 kg total over 4 infusions, drug naive male subjects
  adverse side-effects: No adverse side-effects
[4]; [8]
  fMRI activation in bilateral NAc and mPFC: significant focal activations
  fMRI activation in the amygdala: subthreshold activation
[4]; morphine 4 mg/70 kg total, data not shown
  subjective state (hedonic rating): mild euphoria
[4]; morphine 4 mg/70 kg total, with cardiac gating
  fMRI activation in the VT: left VT activation

## COC(=O)[C@@H]1[C@H]2C[C@H]3c4[nH]c5ccccc5c4CCN3C[C@@H]2CC[C@@H]1O [yohimbine]
[5]
  brain activity in the NAc and other stress-associated regions: significantly elevated levels of brain activity
[6]
  half-life: about 45 minutes
[7]; yohimbine 0.125 mg/kg to 0.4 mg/kg intravenous
  tolerability: generally well tolerated
[7]; yohimbine clinical trials
  reported adverse effects in clinical trials: elevated blood pressure and heart rate, psychomotor agitation, irritability, tremor, headaches, skin flushing, dizziness, urinary frequency, nausea, vomiting and perspiration
[7]; yohimbine infusions 0.4 mg/kg, ten PTSD subjects vs matched healthy controls, associated with increased anxiety self-reports
  PET brain activity in PTSD subjects: deactivations in prefrontal, temporal, parietal, and orbitofrontal cortexes
